In publication PMC11942905, “Identification of a Selective Inhibitor of Human NFS1, a Cysteine Desulfurase Involved in Fe-S Cluster Assembly, via Structure-Based Virtual Screening” (International Journal of Molecular Sciences, 2025):

Tests used:
[1] = target: T1, NFS1 K157A (Homo sapiens, UniProt Q9Y697, K157A); assay: H2S-producing assay, NFS1 K157A mutant; format: biochemical
T1 construct: His tag (N); made in house; host or cells: E. coli BL21(DE3)
Experimental: (§1) To further validate the accuracy of the simulated results, the residues Cys158, Glu387, Lys157, and His156 were mutated to alanine using site-directed mutagenesis.
(§2) For the expression and purification of NFS1Δ1-55/ISD11 in E. coli, the plasmid pNFS1-ISD11 was transformed into BL21(DE3) cells. The cells were grown at 37 °C in 1 L cultures of LB medium containing chloramphenicol (50 μg/ml) until the optical density at 600 nm (OD600) reached 0.6–0.8. Protein expression was induced by adding 0.1 mM isopropyl β-D-1-thiogalactopyranoside (IPTG), followed by an additional 12 h of incubation at 25 °C. The cells were harvested by centrifugation at 8000 rpm for 10 min at 4 °C, then resuspended in lysis buffer containing 50 mM phosphate-buffered saline (PBS, pH 7.4), 500 mM NaCl, 100 mg/L lysozyme, 30 mM imidazole, and 1 mM phenylmethanesulfonyl fluoride (PMSF). The resuspended cells were incubated on ice for 1 h, followed by sonication using an Ultrasonic Cell Disruption System (Scientz, Ningbo, China). The supernatant was obtained by centrifugation at 12,000 rpm for 30 min at 4 °C and was loaded onto a HisTrap FF column (GE Healthcare, Chicago, MA, USA) pre-equilibrated with lysis buffer. […] The protein concentration was measured using a BCA protein assay reagent kit (TransGen Biotech, Beijing, China).

[2] = test system: BEAS-2B cells; assay: CCK-8 cell viability assay, BEAS-2B; format: cell-based; conditions: Homo sapiens, CCK-8, 72 h
Experimental: (§3) Human bronchial epithelial cells (BEAS-2B) and human lung adenocarcinoma A549 cells were purchased from the Institute of Biochemistry and Cell Biology, Chinese Academy of Sciences (Shanghai, China). BEAS-2B and A549 cells were cultured in DMEM supplemented with 10% (v/v) fetal bovine serum and 1% (v/v) penicillin–streptomycin solution at 37 °C in a humidified atmosphere containing 5% CO2. The half-maximal inhibitory concentration (IC50) values of the selected compounds against BEAS-2B and A549 cells were determined using the CCK-8 assay. Briefly, the cells were seeded into 96-well culture plates at a density of 5 × 10^3 cells per well. After 12 h of culture, fresh medium containing varying concentrations of the selected compounds dissolved in DMSO was added for an additional 72-hour incubation. Subsequently, 10 μL of CCK-8 solution was added to each well, followed by a further 1.5-h incubation at 37 °C. The optical density at 450 nm (OD450) for each well was measured using a microplate reader. Medium containing DMSO alone was used as the control group. Cell viability was calculated as the percentage of the OD450 of the experimental group compared to that of the control group, which was set at 100%.

[3] = target: T2, NFS1 H156A (Homo sapiens, UniProt Q9Y697, H156A); assay: H2S-producing assay, NFS1 H156A mutant; format: biochemical
T2 construct: His tag (N); made in house; host or cells: E. coli BL21(DE3)
Experimental: as §1, §2

[4] = test system: A549 cells; assay: Cellular iron content by atomic absorption spectroscopy; format: cell-based, human; conditions: 50 µM, 48 h
Experimental: A549 cells were seeded in a 6-well plate and grown to 40–60% confluence. […] The cells were then washed three times with PBS and digested with 0.25% trypsin (Servicebio, Wuhan, China) for 2 min. The cells were divided into two equal groups: group A and group B. In group A, the cells were lysed with RIPA lysis buffer supplemented with 1 mM of PMSF to extract the total proteins. Protein concentrations were measured using a BCA protein assay reagent kit. In group B, the cells were treated with concentrated nitric acid at 70 °C for 2 h. Once the cells were completely nitrated, the temperature was increased to 150 °C until the nitric acid had completely evaporated. Subsequently, the samples were diluted to 10 mL with a solution containing 1% HNO3 and 0.1% KCl, and the iron levels were measured using atomic absorption spectroscopy (AAS; Analytik Jena AG, Jena, Germany). The iron content was calculated based on the standard curve, and the values were normalized to the protein concentration.

[5] = target: T3, human NFS1 (Homo sapiens, UniProt Q9Y697); assay: NFS1 inhibition assay (H2S-producing, methylene blue); format: biochemical
T3 construct: His tag (N); made in house; host or cells: E. coli BL21(DE3)
Experimental: The 42 candidate compounds were tested for their inhibitory effects on human NFS1 using an in vitro H2S-producing assay. […] Subsequently, the effects of the selected compounds (100 µM) on human NFS1 activity were evaluated.
The activity of NFS1 was determined using a methylene blue assay as described previously, with some modifications. Briefly, reaction mixtures (200 μL) containing 50 mM of Tris-HCl (pH 8.0), 10 μM of PLP, 1 mM of DTT, and 10 μg of NFS1 were preincubated at 37 °C for 3 min. The reaction was then initiated by adding 1 mM of cysteine. After 15 min of incubation at 37 °C, the reaction was quenched by adding 25 μL of 20 mM N,N-dimethyl-p-phenylenediamine in 7.2 M of HCl and 25 μL of 30 mM FeCl3 in 1.2 M of HCl. Subsequently, the reaction mixtures were incubated for another 15 min at 37 °C, followed by centrifugation at 12,000 rpm for 10 minutes to remove the precipitates. The absorbance of the supernatant was measured at 670 nm. A reaction mixture without the substrate cysteine was used as the negative control. The H2S concentration was calculated based on a standard curve prepared using various concentrations of sodium sulfide (Na2S).
For the NFS1 inhibition assays, all test compounds were dissolved in dimethyl sulfoxide (DMSO) to prepare 10 mM stock solutions, which were stored at −80 °C. The stock solutions were diluted to the appropriate concentrations with 50 mM of Tris-HCl (pH 8.0) as required for the experiments. A reaction mixture containing DMSO but no test compounds was used as a negative control. The dose-dependent effects of the inhibitors on NFS1 activity were determined using the methylene blue assay described above. The IC50 values of the inhibitors were calculated by adding different concentrations of the inhibitors to the enzyme reaction mixtures.

[6] = test system: A549 cells; assay: CCK-8 cell viability assay, A549; format: cell-based, human
Experimental: as §3

T3 sequence (Q9Y697 56-457): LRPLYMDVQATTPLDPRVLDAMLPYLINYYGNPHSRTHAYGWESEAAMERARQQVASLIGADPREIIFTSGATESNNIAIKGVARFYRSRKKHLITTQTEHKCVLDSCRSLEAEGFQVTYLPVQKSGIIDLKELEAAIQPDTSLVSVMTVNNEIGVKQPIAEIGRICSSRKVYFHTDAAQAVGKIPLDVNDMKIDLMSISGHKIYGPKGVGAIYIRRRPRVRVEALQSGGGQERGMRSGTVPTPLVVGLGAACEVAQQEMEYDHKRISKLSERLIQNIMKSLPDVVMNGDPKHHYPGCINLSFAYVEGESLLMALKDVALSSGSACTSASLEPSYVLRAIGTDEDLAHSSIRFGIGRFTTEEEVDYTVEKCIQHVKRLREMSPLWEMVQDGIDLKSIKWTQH
T1 sequence (Q9Y697 56-457 K157A): as the sequence (Q9Y697 56-457) above, with K102A counted along it
T2 sequence (Q9Y697 56-457 H156A): as the sequence (Q9Y697 56-457) above, with H101A counted along it

## COc1cc(/C=N/NC(=O)COc2ccc(Cl)cc2Cl)ccc1O [Compound 53]
[1]
  IC50: 53.2 ± 6.44 µM
[2]
  IC50: 31 ± 3.98 µM
[3]
  IC50: 97.3 ± 1.39 µM
[4]
  cellular iron content: significantly increased the cellular iron content
[5]
  IC50: 40.5 ± 3.85 µM
  Ki: 6.4 ± 0.48 µM
[5]; inhibitor 5 μM
  Vmax: 144.2 ± 2.81 nmol/min/mg
[5]; inhibitor 10 μM
  Vmax: 143.3 ± 4.06 nmol/min/mg
[5]; inhibitor 20 μM
  Vmax: 144.1 ± 4.88 nmol/min/mg
[5]; inhibitor 50 μM
  Vmax: 143.5 ± 4.31 nmol/min/mg
[5]; inhibitor 100 μM
  Vmax: 143.8 ± 8.75 nmol/min/mg
[5]; read-out: inhibition of NFS1 activity
  inhibition at 50 µM: 40 to 50%
[5]; versus substrate L-cysteine
  Inhibition Type: competitive inhibitors
[6]; A549 cells, Compound 53 50 µM with 2.5 µM Erastin, versus without
  anti-proliferative activity in the presence of Erastin: increased remarkably
[6]; Homo sapiens, A549, CCK-8, 72 h
  IC50: 16.3 ± 1.92 µM
